In patent US20250230193A1, “CYCLIC COMPOUND HAVING SELECTIVE KRAS INHIBITORY EFFECT ON HRAS AND NRAS” (CHUGAI SEIYAKU KABUSHIKI KAISHA, priority 2022, published 2025):
Where a SMILES comes first, the peptide text is derived from it. Bridges are numbered along the chain shown (N, C = ends). [ ]: non-standard residue; d: D form. The star is where a group is joined. hPhe(3,5-F2-4-CF3) = N[C@@H](CCc1cc(F)c(C(F)(F)F)c(F)c1)C(=O)O; hPhe(3-Cl-4-CF3) = N[C@@H](CCc1ccc(C(F)(F)F)c(Cl)c1)C(=O)O; NPrPhe(4-CF3) = CCCN[C@@H](Cc1ccc(C(F)(F)F)cc1)C(=O)O; NMeGly(cPent) = CN[C@H](C(=O)O)C1CCCC1; NMeD = CN[C@@H](CC(=O)O)C(=O)O; NMeL = CN[C@@H](CC(C)C)C(=O)O; αMeL = CC(C)C[C@](C)(N)C(=O)O; Morpholide = C1CN(*)CCO1; Ac5c = NC1(C(=O)O)CCCC1; Aze = O=C(O)[C@@H]1CCN1; Sar = CNCC(=O)O

What was measured:
[1] = molecular target: GDP-bound HRAS wild-type protein (Homo sapiens, UniProt P01112); test: Binding to HRAS by surface plasmon resonance (SPR), Single Cycle Kinetics; details: SPR; for HRAS/KRAS (ratio of KD value with respect to HRAS to KD value with respect to KRAS): GDP-bound HRAS wild-type vs GDP-bound KRAS wild-type
GDP-bound HRAS wild-type protein, sequence (P01112 whole entry): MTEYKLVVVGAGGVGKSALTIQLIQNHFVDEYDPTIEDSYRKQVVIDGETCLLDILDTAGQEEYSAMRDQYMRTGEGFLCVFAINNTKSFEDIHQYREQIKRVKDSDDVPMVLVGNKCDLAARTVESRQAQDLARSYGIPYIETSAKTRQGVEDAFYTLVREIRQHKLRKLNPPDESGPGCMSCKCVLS

[2] = molecular target: GDP-bound NRAS wild-type protein (Homo sapiens, UniProt P01111); test: Binding to NRAS by surface plasmon resonance (SPR), Single Cycle Kinetics; details: SPR; for NRAS/KRAS (ratio of KD value with respect to NRAS to KD value with respect to KRAS): GDP-bound NRAS wild-type vs GDP-bound KRAS wild-type
GDP-bound NRAS wild-type protein, sequence (P01111 whole entry): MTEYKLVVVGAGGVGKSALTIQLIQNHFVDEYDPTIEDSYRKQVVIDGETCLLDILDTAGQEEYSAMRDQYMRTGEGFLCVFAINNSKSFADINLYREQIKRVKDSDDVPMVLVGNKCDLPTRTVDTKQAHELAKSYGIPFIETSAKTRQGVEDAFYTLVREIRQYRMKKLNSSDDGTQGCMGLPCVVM

## CCCOC[C@H]1C(=O)N[C@@H]([C@@H](C)CC)C(=O)N(C)CC(=O)N(C)[C@H]2C/C=C\CCN(C2=O)[C@@H](Cc2ccc(C)cc2)C(=O)N(C)CC(=O)N[C@@H](CCc2ccc(C(F)(F)F)c(OC)c2)C(=O)N2C[C@@H](C)C[C@H]2C(=O)NC2(CC(C)(C)C2)C(=O)N(C)[C@@H](C2CCCC2)C(=O)N(C)[C@H](C(=O)N(C)C)CC(=O)N1C [PP2447]
[1]
  HRAS/KRAS (ratio of KD value with respect to HRAS to KD value with respect to KRAS): B (a compound having 3 or more and less than 10 is denoted as B)
[2]
  NRAS/KRAS (ratio of KD value with respect to NRAS to KD value with respect to KRAS): A (a compound having 10 or more and less than 20 is denoted as A)

## CCOC[C@H]1C(=O)N[C@@H]([C@@H](C)CC)C(=O)N2CCC[C@H]2C(=O)N(C)[C@H]2C/C=C\CCN(C2=O)[C@@H](CC2CCC(F)(F)CC2)C(=O)N(C)CC(=O)N[C@@H](CCc2ccc(C(F)(F)F)c(OC)c2)C(=O)N2C[C@H](OCC)C[C@H]2C(=O)N(C)C2(CCC2)C(=O)N(C)[C@@H](C(CC)CC)C(=O)N(C)[C@H](C(=O)N(C)C)CC(=O)N1C [PP2355]
[1]
  HRAS/KRAS (ratio of KD value with respect to HRAS to KD value with respect to KRAS): A (a compound having 10 or more and less than 20 is denoted as A)
[2]
  NRAS/KRAS (ratio of KD value with respect to NRAS to KD value with respect to KRAS): AA (a compound having 20 or more is denoted as AA)

## CCC[C@H]1C(=O)N[C@@H](C2CCCCC2)C(=O)N(C)CC(=O)N(C)[C@H]2C/C=C\CCN(C2=O)[C@@H](Cc2ccc(C(F)(F)F)cc2)C(=O)N(C)CC(=O)N[C@@H](CCc2ccc(C(F)(F)F)c(Cl)c2)C(=O)N2C[C@H](OCC)C[C@H]2C(=O)NC2(CC(C)(C)C2)C(=O)N(C)[C@@H](CC(C)(C)C)C(=O)N(C)[C@H](C(=O)N(C)C)CC(=O)N1C [PP3014]
[1]; KD ratio HRAS/KRAS, GDP-bound wild-type proteins
  HRAS/KRAS (ratio of KD value with respect to GDP-bound HRAS wild-type protein to KD value with respect to KRAS): A (a compound having 10 or more and less than 20 is denoted as A)
[2]; KD ratio NRAS/KRAS, GDP-bound wild-type proteins
  NRAS/KRAS (ratio of KD value with respect to GDP-bound NRAS wild-type protein to KD value with respect to KRAS): AA (a compound having 20 or more is denoted as AA)

## CC[C@H](C)[C@@H]1NC(=O)[C@H](CC(C)C)N(C)C(=O)C[C@@H](C(=O)N(C)C)N(C)C(=O)[C@H](C2CCCC2)N(C)C(=O)C2(CCCC2)NC(=O)[C@@H]2CCCN2C(=O)[C@H](CCc2cc(F)c(C(F)(F)F)c(F)c2)NC(=O)CN(C)C(=O)[C@H](Cc2ccc(C(F)(F)F)cc2)N2CCCCC[C@@H](C2=O)N(C)C(=O)CN(C)C1=O [PP0507]
[1]; KD ratio HRAS/KRAS
  HRAS/KRAS (ratio of KD value with respect to GDP-bound HRAS wild-type protein to KD value with respect to KRAS): B (a compound having 3 or more and less than 10 is denoted as B)
[2]; KD ratio NRAS/KRAS
  NRAS/KRAS (ratio of KD value with respect to GDP-bound NRAS wild-type protein to KD value with respect to KRAS): B (a compound having 3 or more and less than 10 is denoted as B)

## CCCN1C(=O)[C@@H]2CCN2C(=O)CN(C)C(=O)[C@H]([C@@H](C)CC)NC(=O)[C@H](CC(C)C)N(C)C(=O)C[C@@H](C(=O)N2CCOCC2)N(C)C(=O)[C@H](C2CCCC2)N(C)C(=O)[C@](C)(CC(C)C)NC(=O)[C@@H]2CCCN2C(=O)[C@H](CCc2cc(F)c(C(F)(F)F)c(F)c2)NC(=O)CN(C)C(=O)[C@@H]1Cc1ccc(C(F)(F)F)cc1 [PP0795] ([NMeL]I[Sar][Aze][NPrPhe(4-CF3)][Sar][hPhe(3,5-F2-4-CF3)]P[αMeL][NMeGly(cPent)][NMeD]-Morpholide; lactam N-11)
[1]; KD ratio HRAS/KRAS
  HRAS/KRAS (ratio of KD value with respect to GDP-bound HRAS wild-type protein to KD value with respect to KRAS): B (a compound having 3 or more and less than 10 is denoted as B)
[2]; KD ratio NRAS/KRAS
  NRAS/KRAS (ratio of KD value with respect to GDP-bound NRAS wild-type protein to KD value with respect to KRAS): C (A compound having a KD ratio of 0.1 or more and less than 3 is denoted as C)

## CCCN1C(=O)CN(C)C(=O)[C@@H]2CCN2C(=O)[C@H]([C@@H](C)CC)NC(=O)[C@H](CC(C)C)N(C)C(=O)C[C@@H](C(=O)N2CCOCC2)N(C)C(=O)[C@H](C2CCCC2)N(C)C(=O)C2(CCCC2)NC(=O)[C@@H]2CCN2C(=O)[C@H](CCc2ccc(C(F)(F)F)c(Cl)c2)NC(=O)CN(C)C(=O)[C@@H]1Cc1ccc(C(F)(F)F)cc1 [PP0307] ([NMeL]I[Aze][Sar][NPrPhe(4-CF3)][Sar][hPhe(3-Cl-4-CF3)][Aze][Ac5c][NMeGly(cPent)][NMeD]-Morpholide; lactam N-11)
[1]; KD ratio HRAS/KRAS
  HRAS/KRAS (ratio of KD for GDP-bound HRAS wild-type to KD for KRAS): B (a compound having 3 or more and less than 10 is denoted as B)
[2]; KD ratio NRAS/KRAS
  NRAS/KRAS (ratio of KD for GDP-bound NRAS wild-type to KD for KRAS): B (a compound having 3 or more and less than 10 is denoted as B)

## CCC(CC)[C@H]1C(=O)N(C)[C@H](C(=O)N(C)C)CC(=O)N(C)[C@@H](COC)C(=O)N[C@@H]([C@@H](C)CC)C(=O)N(C2CC2)CC(=O)N(C)[C@H]2C/C=C\CCN(C2=O)[C@@H](Cc2ccc(C)cc2)C(=O)N(C)CC(=O)N[C@@H](CCc2ccc(Cl)c(Cl)c2)C(=O)N2C[C@H](OC(C)C)C[C@H]2C(=O)NC2(CC(C)(C)C2)C(=O)N1C (stereo in doubt) [PP2509]
[1]
  HRAS/KRAS (ratio of KD value with respect to HRAS to KD value with respect to KRAS): A (a compound having 10 or more and less than 20 is denoted as A)
[2]
  NRAS/KRAS (ratio of KD value with respect to NRAS to KD value with respect to KRAS): AA (a compound having 20 or more is denoted as AA)
